Reference: patent US20250243176A1, “(S)-1-(1-ACRYLOYLPIPERIDIN-3-YL)-2-FLUORO-5,6,7,8,9,10-HEXAHYDROCYCLO HEPTA[B]INDOLE-4-CARBOXAMIDE, AND RELATED CRYSTALLINE FORMS, COMPOSITIONS, AND METHODS THEREOF” (GB005, Inc., priority 2021, published 2025)
In brackets after ≈: the same amount, converted by molar mass. Like-named read-outs stand apart in the source and are kept apart here.

Assays:
[1] = molecular target: T1, Bruton's tyrosine kinase (BTK) (Homo sapiens, UniProt Q06187); assay: BTK whole blood functional assay; format: cell-based
T1 construct: from tissue; host or cells: whole blood
From the text: (§1) (S)-1-(1-acryloylpiperidin-3-yl)-2-fluoro-5,6,7,8,9,10-hexahydrocyclohepta[b]indole-4-carboxamide, hereinafter referred to as “Compound 1”, is an orally available, selective, potent inhibitor of Bruton's tyrosine kinase (BTK), thereby providing potential treatment options in BTK-driven diseases. The potency of Compound 1 for BTK inhibition is in the nM range in both cell-free enzymatic and whole blood functional assays.

TEC = molecular target: T2, TEC (Homo sapiens, UniProt P42680); assay: Kinome scan, TEC; format: biochemical
T2 sequence (P42680 1-631): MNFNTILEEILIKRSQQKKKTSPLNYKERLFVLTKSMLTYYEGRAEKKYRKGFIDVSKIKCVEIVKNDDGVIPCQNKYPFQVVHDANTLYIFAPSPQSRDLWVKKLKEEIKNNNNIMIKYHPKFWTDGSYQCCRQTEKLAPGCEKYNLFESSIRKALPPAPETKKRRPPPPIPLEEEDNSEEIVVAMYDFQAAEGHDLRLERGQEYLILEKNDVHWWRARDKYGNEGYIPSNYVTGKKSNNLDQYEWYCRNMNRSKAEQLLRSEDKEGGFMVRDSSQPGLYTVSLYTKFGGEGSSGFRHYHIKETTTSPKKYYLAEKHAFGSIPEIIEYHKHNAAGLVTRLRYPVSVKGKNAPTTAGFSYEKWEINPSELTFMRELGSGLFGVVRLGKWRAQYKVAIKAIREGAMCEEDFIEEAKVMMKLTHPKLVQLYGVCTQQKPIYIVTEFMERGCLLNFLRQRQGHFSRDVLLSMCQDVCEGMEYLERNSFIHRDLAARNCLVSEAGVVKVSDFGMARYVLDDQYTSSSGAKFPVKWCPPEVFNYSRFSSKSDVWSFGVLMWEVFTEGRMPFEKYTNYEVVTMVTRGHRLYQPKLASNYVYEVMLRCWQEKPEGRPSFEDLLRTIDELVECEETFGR
From the text: as §1

[2] = pKa determination, Sirius T3 titrator (Form III); format: physicochemical; conditions: titrations at 25° C., acidic and basic sites
Description: In each of the following studies (Examples 6-10), the starting material was Compound 1 (free form, not salt) Form III. The material was a light yellow solid, comprising non-hygroscopic irregular shaped crystal with aggregation. The same analytical methods as described in Example 1 were employed.
pKa was assessed using Sirius T3 titrator. The acidic and basic sites were very weak, and undetectable by Sirius T3.

[3] = Solubility testing in aqueous media at various pH (Form III); format: physicochemical; conditions: thermodynamic from solid
Description: 0.833 mL concentrated hydrochloric acid was diluted to 100 mL with water (pH=1.0).
Added appropriate amount of water to 0.1N HCl, adjust the pH to 1.2.
KH2PO4 (1360.0 mg) and NaOH (310.0 mg) are mixed in a 200 mL volumetric flask. Water was added to dissolve the solid and dilute to the volume. The flask was shaken to achieve good mixing. (pH=7.42).
Solubility was measured in pH 1.0 water, pH 1.2 buffer and pH 7.4 buffer at room temperature and 37° C. About 10-15 mg of sample was weighed into sample vials and then 2.0/3.0 mL of 0.1 N HCl solution, pH 1.2 buffer and pH 7.4 buffer media, and water were added, respectively. Samples were run in duplicate for each medium. The suspensions were shaken at room temperature or 37° C. Residual solid was collected for XRPD analysis, though no form change occurred during testing. In all instances, very low solubility was observed.

[4] = Phase 1 multiple ascending dose plasma pharmacokinetics; format: in vivo, human; conditions: for Tmax / half-life / Cmax / AUC(0-inf): fed; for half-life / Cmax / AUC(0-inf): human, plasma, oral; for half-life: 15 mg; for AUC(0-inf): read-out: AUC0-inf or tau
From the text: Part A is a randomized, double-blind, placebo-controlled, single- and -multiple-dose study with staggered dose escalation, administered in the fed state (standard moderate-fat meal). Part A consists of […] (up to 7 single-ascending dose [SAD] cohorts [Cohorts 1-6 & 14], and up to 3 multiple ascending dose [MAD] cohorts [Cohorts 7-9]). Subjects are randomized in a 3:1 ratio per cohort to receive either: Compound 1 Formulation A (N=6 for Cohorts 1-4 and N=9 for Cohorts 5-9 & 14); or placebo (PBO; N=2 for Cohorts 1-4 and N=3 for Cohorts 5-9 & 14).
• Cohorts 7 and 8: Day 1, all subjects begin once-daily multiple dose administration of Formulation A Compound 1 or placebo for 10 days. • Cohort 9: Day −1, all subjects receive placebo. • Day 1, all subjects begin once-daily multiple dose administration of • Compound 1 or placebo for 10 days.
Results: Preliminary pharmacokinetic results from 1 completed MAD cohort are presented, including 12 subjects receiving 15 mg once daily for 10 days randomized in a 3:1 ratio to receive Compound 1 or placebo) in a fed state (moderate-fat meal). […] Preliminary PK parameters are presented in Table 47 (all pharmacokinetic parameters of […] are reported as Mean (% coefficient of variation), except for Tmax and t1/2, which are reported as Median (Min, Max), and in FIG. 27 showing single and multiple dose plasma profiles (Mean±SD).

[5] = as above; format: in vivo; conditions: both sexes, human, oral, MAD cohort, 15 mg once daily for 10 days, fed
[6] = pH 7.4 buffer (KH2PO4/NaOH), aqueous buffer, pH 7.4 Buffer, 37° C.
[7] = pH 7.4 buffer (KH2PO4/NaOH), aqueous buffer, pH 7.4 Buffer, RT
[8] = simulated gastric fluid, pH 1.0 (0.1N HCl), RT
[9] = simulated gastric fluid, pH 1.2 Buffer, 37° C.
[10] = both sexes, Cohort 7, 15 mg once daily, Day 1, mean
[11] = Cohort 7, 15 mg once daily, Day 10, mean

T1 sequence (Q06187 whole entry, species assumed): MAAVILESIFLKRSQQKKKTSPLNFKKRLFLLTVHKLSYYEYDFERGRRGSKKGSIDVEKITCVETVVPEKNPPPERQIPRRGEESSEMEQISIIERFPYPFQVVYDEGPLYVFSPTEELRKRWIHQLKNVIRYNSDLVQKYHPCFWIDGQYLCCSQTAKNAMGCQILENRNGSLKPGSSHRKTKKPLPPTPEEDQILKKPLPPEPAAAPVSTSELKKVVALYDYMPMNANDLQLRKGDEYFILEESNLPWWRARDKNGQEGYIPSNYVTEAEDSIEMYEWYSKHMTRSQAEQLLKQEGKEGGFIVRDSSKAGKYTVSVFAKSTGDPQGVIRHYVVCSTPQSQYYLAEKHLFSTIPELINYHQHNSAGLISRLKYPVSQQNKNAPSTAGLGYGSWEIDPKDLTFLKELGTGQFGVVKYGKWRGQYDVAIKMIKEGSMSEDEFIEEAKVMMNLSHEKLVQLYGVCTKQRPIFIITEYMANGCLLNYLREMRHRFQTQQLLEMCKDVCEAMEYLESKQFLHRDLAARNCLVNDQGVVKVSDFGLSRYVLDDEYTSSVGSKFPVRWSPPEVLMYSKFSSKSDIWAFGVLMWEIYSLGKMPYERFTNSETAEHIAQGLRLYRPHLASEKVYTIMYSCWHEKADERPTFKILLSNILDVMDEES

potency for BTK inhibition [1]: nM range
inhibition at 1 µM (TEC): > 50%
pKa [2]: undetectable
solubility at 4 h [3, 6]: 0.8 µg/mL (≈ 2.09 µM)
solubility at 24 h [3, 6]: 0.8 µg/mL (≈ 2.09 µM)
solubility at 24 h [3, 7]: 0.8 µg/mL (≈ 2.09 µM)
solubility at 48 h [3, 7]: 1.7 µg/mL (≈ 4.43 µM)
solubility at 4 h [3, 8]: 0.7 µg/mL (≈ 1.83 µM)
solubility at 24 h [3, 8]: 0.8 µg/mL (≈ 2.09 µM)
solubility at 48 h [3, 8]: 1.6 µg/mL (≈ 4.17 µM)
solubility at 4 h [3, 9]: 0.9 µg/mL (≈ 2.35 µM)
solubility at 24 h [3, 9]: 0.9 µg/mL (≈ 2.35 µM)
solubility at 4 h ([3]; Water (pH 5.0), 37° C.): 0.6 µg/mL (≈ 1.56 µM)
solubility at 24 h ([3]; Water (pH 5.0), 37° C.): 0.7 µg/mL (≈ 1.83 µM)
accumulation upon once-daily dosing ([4]; 15 mg once daily for 10 days): Minimal to no accumulation
Tmax ([4]; Cohort 7, 15 mg once daily, Day 1, median): 1.5 br
Tmax ([4]; Cohort 7, 15 mg once daily, Day 10, median): 1.5 br
half-life ([4]; both sexes, MAD cohort, 15 mg once daily for 10 days, read-out: terminal half-life (converted)): ~3 h
Cmax [4, 10]: 85.8 ng/mL
AUC(0-inf) [4, 10]: 312 ng·h/mL
half-life ([4]; Cohort 7, 15 mg once daily, Day 1, median, read-out: T1/2 (converted)): 3.19 h
half-life ([4]; Cohort 7, 15 mg once daily, Day 10, median, read-out: T1/2 (converted)): 3.37 h
Cmax [4, 11]: 102 ng/mL
AUC(0-inf) [4, 11]: 353 ng·h/mL
Tmax [5]: 1.5 h
Compound: C=CC(=O)N1CCC[C@@H](c2c(F)cc(C(N)=O)c3[nH]c4c(c23)CCCCC4)C1 [Compound 1, (S)-1-(1-acryloylpiperidin-3-yl)-2-fluoro-5,6,7,8,9,10-hexahydrocyclohepta[b]indole-4-carboxamide]
